Test results: patent publication US11590202B2, “Inhibitors of LTβR-NFκB signaling pathways for treating inflammation and cancer” (University of Maryland, Baltimore, priority 2017, dated 2023)
No end group written: not given here.

What was measured:
Format in all cases: cell-based, mouse
[1] = tested on: classical NFκB signaling in LEC; experiment: Immunoblot of classical NFκB signaling (IKKα/β phosphorylation, IκBα degradation); details: 2 μg/mL anti-LTβR mAb or 20 ng/mL TNFα
Experimental: (§1) LECs were lysed in buffer containing 20 mM HEPES (pH 7.4), 150 mM NaCl, 10 mM NaF, 2 mM Na3VO4, 1 mM EDTA, 1 mM EGTA, 0.5% Triton X-100, 0.1 mM DTT, 1 mM PMSF and protease inhibitor cocktail (Roche, Indianapolis, Ind.). Protein in the cell extract was quantified using protein quantification kit (Bio-Rad, Philadelphia, Pa.) and 10 μg total protein was run on Novex™ WedgeWell™ 4-20% Tris-Glycine Mini Gels (Invitrogen) and transferred to an Immobilon-P membrane (Bio-Rad). Membranes were probed with anti-NF-κB2 p100/p52, NIK, phospho-IKKα/β(Ser176/180) (16A6), IκBα, TRAF2, TRAF3, and GAPDH antibodies. For co-IP assays, 500 μg total protein of cell extract was incubated with 1 μg of anti-mLTβR (5G11b) overnight, followed by 4 hour incubation with 25 μL protein G Agarose beads (Sigma-Aldrich). The beads were then washed with lysis buffer and boiled in 2× Laemmli sample buffer (Bio-Rad).

[2] = tested on: LTβR complex (TRAF2, TRAF3); experiment: Co-immunoprecipitation of LTβR complex with anti-LTβR; details: LEC pretreated, then anti-LTβR mAb for 10 minutes
Experimental: as §1

[3] = tested on: LTβR-induced chemokines and cell adhesion molecules in LEC and SVEC4-10; experiment: LTβR-induced chemokine and adhesion molecule expression (qRT-PCR, ELISA, flow cytometry, immunohistochemistry); details: LEC or SVEC4-10, anti-LTβR mAb (plus CL), peptides 20 μM; for LTβR-induced CCL2 expression/production: NIKi 50 μM, BAY11 25 μM
Experimental: LECs in PBS containing 0.2 mM calcium, 0.1 mM magnesium and 0.5% w/v BSA were treated with anti-CD16/32 (clone 93, eBioscience) to block Fc receptors, and then stained with antibodies to cell surface molecules in the same buffer. Flow cytometry antibodies used were: APC-eflour780-anti-mouse CD4 (GK1.5, eBioscience); PE-anti-mouse CD25 (PC61.5, eBioscience); APC-anti-mouse VCAM-1 (clone 647, eBioscience). For detection of LTα2β1, T cells were incubated with MOPC21 or LTβRIg at 2 μg/mL for 60 minutes at 37° C. in HBSS with 2% FBS. Cells were washed, and then stained for 45 minutes at 4° C. with BV421-rat anti-mouse IgG1 along with antibodies to other cell surface markers. Cells were then washed and fixed with 4% paraformaldehyde and run on an LSR Fortessa flow cytometer (BD Biosciences, San Jose, Calif.). Results were analyzed with software FlowJo 8.7 (Treestar).
(§2) One μg of total RNA extracted using Trizol reagent (Invitrogen) was reverse-transcribed into cDNA with GoScript™ Reverse Transcription System (Promega, Fitchburg, Wis.). mRNA expression levels were quantified by real-time PCR using SYBR Green Master Mix with an ABI Prism 7900HT (Applied Biosystems, Foster City, Calif.). Values for specific gene expression were normalized to house-keeping HPRT gene expression and were calculated as: 2^(Ct of HPRT-Ct specific gene). For the microarrays, total RNA of treated mLECs was extracted with RNeasy mini kit (Qiagen, Germantown, Md.) and analyzed for purity and integrity by capillary electrophoresis on an Agilent Bioanalyzer 2100 (Agilent Technologies, Inc. Santa Clara, Calif.). 100 ng/sample was subjected to amplification, followed by labeling and hybridization to Mouse Genome 430 2.0 GeneChips (Affymetrix, Santa Clara, Calif.). Sample amplification, labeling, hybridization, and detection were performed according to the manufacturer's protocols.
5×10^5 LECs or SVEC4-10 cells were plated in 12-well plates and treated with 20 μM peptides for 30 minutes at 37° C. Cells were then washed and incubated with anti-LTβR agonistic mAb (2 μg/mL) for 30 minutes at 4° C., followed by washing and then cross-linking with anti-rat IgG (2 μg/mL) for 6 or 16 hours at 37° C. The supernatants were collected and stored in −80° C. Mouse CCL2 and CCL21 were measured with ELISA kits from Biolegend, Inc. and R&D Systems (Minneapolis, Minn.), respectively.
(§3) LEC monolayers were stained for surface VCAM-1, LTβR or Lyve-1 with rat anti-mouse VCAM-1 (Clone 429, eBioscience), rat anti-mouse LTβR (Clone 3C8, eBioscience) or rabbit anti-mouse Lyve-1 (70R-LR003, Fitzgerald, Acton, Mass.), then were fixed for 20 minutes at 4° C. with 4% (w/v) paraformaldehyde (Affymetrix), permeabilized with PBS 0.2% (v/v) Triton X-100 (Sigma-Aldrich), and treated with 2% donkey serum for 10 minutes then incubated with rabbit anti-mouse CXCL12 (eBioscience), goat-anti-mouse CCL21 (Clone AF457, R&D System), or anti-NIK mouse monoclonal antibody (Clone A-12, Santa Cruz Biotechnology) overnight at 4° C. The primary antibodies were detected with Alexa Fluor […], 647 (Cy5), or 546 (Cy3)-conjugated donkey anti-goat, donkey anti-rabbit, or donkey anti-rat secondary antibodies (Jackson ImmunoResearch, West Grove, Pa.) for 1 hour at 4° C. Transwell membranes were transferred onto glass slides and visualized by fluorescent microscopy (Zeiss LSM 510 Meta, and LSMS Duo) with a ×60 or ×20 objective. Images were analyzed with Volocity version 6.3 software.

[4] = tested on: TNFR1-mediated VCAM-1 expression in LEC; experiment: TNFα-stimulated VCAM-1 expression in LEC (qRT-PCR); details: LEC stimulated with TNFα for 1 hour
Experimental: as §2

[5] = tested on: LTβR-NIK signaling in LEC and SVEC4-10; experiment: Immunohistochemistry of LTβR, NIK and RelB in LEC and SVEC4-10; details: anti-LTβR for 6 hours
Experimental: as §3

[6] = tested on: LTβR-mediated non-classical NFκB (NIK) signaling in LEC and SVEC4-10; experiment: Immunoblot of non-classical NFκB (NIK) signaling after LTβR activation
Experimental: as §1

LEC = experiment: MTT viability assay; details: 20 μM peptides, without or with anti-LTβR mAb
Experimental: LECs were plated into 24-well tissue culture plates, incubated overnight, and treated with 20 μM peptides with or without agonist anti-LTβR (2 μg/mL) for 4 hours, followed by 3 hour incubation with 0.5 mg/mL MTT (3-(4, 5-Dimethylthiazol-2-yl)-2, 5 diphenyl tetrazolium bromide) (Sigma-Aldrich). 50 μL DMSO was added to cells before reading OD at 540 nm.

[7] = pretreated with peptides or inhibitors, then anti-LTβR for 6 hours

Molecule	TRAF2 recruitment to the LTβR complex [2]	TRAF3 recruitment to the LTβR complex [2]	LTβR-induced VCAM-1 expression [3]	LTβR-induced CCL2 expression/production [3]	NIK expression and co-localization with LTβR [5]	TRAF2 degradation [6, 7]	LEC viability (MTT) (LEC)	other results
TNFα	–	–	–	–	–	–	–	early classical NFκB activation (IKKα/β phosphorylation, IκBα degradation) [1]: induced strong IKKα/β phosphorylation and IκBα degradation
CC(C)(C)c1ccc(S(=O)(=O)/C=C/C#N)cc1 [BAY11-7085]	not BAY11-7085 was sufficient to inhibit	not BAY11-7085 was sufficient to inhibit	suppressed	suppressed	neither ciLT, BAY11-7085, nor NIKi affected	not BAY11-7085 also prevented	–	TNFR1-mediated VCAM-1 expression [4]: significantly inhibited
RQIKIWFQNRRMKWKKPEEGAPGP [ciLT]	–	–	–	–	–	–	did not affect	–
CN[C@@H](C)C(=O)N[C@H]1CN(C(=O)CC(C)C)CC[C@H]2CC[C@@H](C(=O)NC(c3ccccc3)c3ccccc3)N2C1=O [AT406]	–	–	–	–	–	–	–	LTβR-mediated NIK accumulation and p100 processing ([6]; LEC and SVEC4-10, anti-LTβR mAb, 25 μM AT406): promoted more LTβR-mediated NIK accumulation and p100 processing
RQIKIWFQNRRMKWKKTGNIYIYNGPVL [nciLT]	–	–	–	–	–	–	did not affect	–
O=C1Cc2ccccc2C(=O)N1 [NIKi, 4H-isoquinoline-1,3-dione]	blocked	blocked	did not affect	partial inhibitory effect	neither ciLT, BAY11-7085, nor NIKi affected	inhibited TRAF2 degradation	–	LTβR-induced CCL21 transcription and production [3]: inhibited; p100 processing to p52 [6, 7]: prevented
